Experimental data from patent publication US20170266154A1, “METHOD FOR TREATING ALZHEIMER'S DISEASE AND 2, 3-BIPHOSPHOGLYCERATE METABOLISM DISORDER INDUCED” (National Sun Yat-sen University, priority 2016, published 2017).

Target: hemoglobin (Homo sapiens, UniProt P68871+P69905)
Experiment: hemoglobin-oxygen equilibrium curves (P50 value, oxygen saturation fraction)
Format: biochemical
Conditions: for effect in combination with 2,3-BPG on hemoglobin modulation: FIG. 2
Excerpt: The oxygen affinity of hemoglobin was represented by P50 value. The P50 value was the required partial pressure of oxygen to achieve 50% oxygen saturation.

[1] = PO2 20 mmHg, 2,3-BPG 1.2 mM, alone or after treating with a phthalide compound (FIG. 7)

Sequence of hemoglobin (P69905 2-142 limits assumed): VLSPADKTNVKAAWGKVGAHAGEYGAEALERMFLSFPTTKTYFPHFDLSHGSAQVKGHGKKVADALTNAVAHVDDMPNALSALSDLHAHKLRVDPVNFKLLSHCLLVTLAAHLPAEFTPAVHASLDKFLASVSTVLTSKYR
Sequence of hemoglobin (P68871 2-147 limits assumed): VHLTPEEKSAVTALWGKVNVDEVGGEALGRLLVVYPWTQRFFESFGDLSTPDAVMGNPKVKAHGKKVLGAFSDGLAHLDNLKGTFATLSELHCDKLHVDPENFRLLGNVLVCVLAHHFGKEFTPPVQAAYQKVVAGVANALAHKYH

Compound	effect in combination with 2,3-BPG on hemoglobin modulation	oxygen release efficiency [1] [%]	oxygen saturation level / fraction of hemoglobin [1]	P50 value of hemoglobin (about 4 mM 2,3-BPG, no phthalide compound) [mmHg]	oxygen release efficiency of hemoglobin (oxygen partial pressure 20 mmHg, 12 mM 2,3-BPG, hemoglobin without 2,3-BPG 20%) [%]	oxygen saturation fraction of hemoglobin (oxygen partial pressure 20 mmHg, 12 mM 2,3-BPG, hemoglobin without 2,3-BPG about 80%) [%]	2,3-BPG required for hemoglobin to reach a P50 value of 18.8 mmHg (approximately the same or higher) (without or after administration of phthalide compounds (FIG. 6))
CCC/C=C1\OC(=O)C2=C1CC[C@@H](O)[C@@H]2O [Senkyunolide I, senkyunolide I]	synergistic effect						
CCC/C=C1\OC(=O)C2=C1CCC=C2 [Z-Ligustilide, Z-ligustilide]	synergistic effect						
O=C(O)C(COP(=O)(O)O)OP(=O)(O)O (centres unmarked) [2,3-BPG, 2,3-bisphosphorglycerate]		40	about 60%	18.8	65	~35	about 4 mM
